Key:
Assay type in all cases: binding
Details in all cases: Compound Concentration 10 µM
[1] = molecular target: T1, panel of 442 kinases (Homo sapiens, UniProt P00533, T790M)
T1 construct: purchased KINOMEscan
Excerpt: (§1) We assessed the selectivity of members of this scaffold using the KINOMEscan methodology across a near comprehensive panel of 442 kinases [[18,27]].

[2] = molecular target: T2, panel of 442 kinases (Homo sapiens, UniProt Q86V86)
T2 construct: purchased KINOMEscan
Excerpt: as §1

[3] = molecular target: T3, panel of 442 kinases (Plasmodium falciparum, UniProt P61075)
T3 construct: purchased KINOMEscan
T3 sequence (P61075 whole entry): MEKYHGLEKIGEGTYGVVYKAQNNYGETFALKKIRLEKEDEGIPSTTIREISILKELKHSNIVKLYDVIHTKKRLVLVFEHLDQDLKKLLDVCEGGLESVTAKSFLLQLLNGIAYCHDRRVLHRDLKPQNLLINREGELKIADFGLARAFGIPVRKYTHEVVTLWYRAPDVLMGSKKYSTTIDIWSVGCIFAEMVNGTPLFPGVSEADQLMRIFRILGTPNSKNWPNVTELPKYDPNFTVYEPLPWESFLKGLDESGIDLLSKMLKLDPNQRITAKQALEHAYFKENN
Excerpt: as §1

T1 sequence (P00533 25-1210 T790M): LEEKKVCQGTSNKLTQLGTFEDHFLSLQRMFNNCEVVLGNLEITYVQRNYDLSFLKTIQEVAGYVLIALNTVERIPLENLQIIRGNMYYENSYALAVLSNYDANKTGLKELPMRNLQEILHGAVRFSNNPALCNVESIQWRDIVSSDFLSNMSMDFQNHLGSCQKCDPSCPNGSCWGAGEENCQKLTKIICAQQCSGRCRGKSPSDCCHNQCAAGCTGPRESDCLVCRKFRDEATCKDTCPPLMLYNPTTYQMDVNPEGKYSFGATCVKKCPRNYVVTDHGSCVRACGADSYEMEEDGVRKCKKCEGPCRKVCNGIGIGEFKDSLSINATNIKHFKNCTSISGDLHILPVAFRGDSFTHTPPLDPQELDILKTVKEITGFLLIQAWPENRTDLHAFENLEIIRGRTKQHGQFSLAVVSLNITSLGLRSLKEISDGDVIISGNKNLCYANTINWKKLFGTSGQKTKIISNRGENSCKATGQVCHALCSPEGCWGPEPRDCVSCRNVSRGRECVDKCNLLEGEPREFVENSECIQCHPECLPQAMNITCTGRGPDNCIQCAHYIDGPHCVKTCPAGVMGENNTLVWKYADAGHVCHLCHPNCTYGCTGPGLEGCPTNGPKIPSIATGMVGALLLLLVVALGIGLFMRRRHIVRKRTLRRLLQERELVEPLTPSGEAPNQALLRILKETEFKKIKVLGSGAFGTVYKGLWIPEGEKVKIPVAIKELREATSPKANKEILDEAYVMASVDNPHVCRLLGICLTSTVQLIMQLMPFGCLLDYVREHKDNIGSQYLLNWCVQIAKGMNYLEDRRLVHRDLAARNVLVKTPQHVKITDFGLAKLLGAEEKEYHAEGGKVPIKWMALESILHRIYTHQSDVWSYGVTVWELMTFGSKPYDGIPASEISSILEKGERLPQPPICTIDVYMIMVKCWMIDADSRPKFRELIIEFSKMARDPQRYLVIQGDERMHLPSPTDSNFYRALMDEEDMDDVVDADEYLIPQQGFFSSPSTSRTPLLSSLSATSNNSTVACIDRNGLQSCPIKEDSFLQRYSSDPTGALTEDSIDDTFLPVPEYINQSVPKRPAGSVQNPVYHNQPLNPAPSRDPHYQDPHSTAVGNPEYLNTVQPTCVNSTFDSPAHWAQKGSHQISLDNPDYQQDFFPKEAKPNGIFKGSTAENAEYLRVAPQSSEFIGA

CCOc1cc(C(=O)N2CCC(N3CCN(C)CC3)CC2)ccc1Nc1ncc2c(n1)N(C1CCCC1)c1ccccc1C(=O)N2C [Compound 26]
KINOMEscan: EGFR(T790M) [1]: 100
KINOMEscan: PIM3 [2]: 100
KINOMEscan: PFPK5(P.falciparum) [3]: 100

COc1cc(C(=O)N2CCC(N3CCN(C)CC3)CC2)ccc1Nc1ncc2c(n1)N(C1CCCC1)c1ccccc1C(=O)N2C [Compound 25, 11-cyclopentyl-2-((2-methoxy-4-(4-(4-methylpiperazin-1-yl)piperidine-1-carbonyl)phenyl)amino)-5-methyl-5H-benzo[e]pyrimido[5,4-b][1,4]diazepin-6(11H)-one]
KINOMEscan: EGFR(T790M) [1]: 89
KINOMEscan: PIM3 [2]: 78
KINOMEscan: PFPK5(P.falciparum) [3]: 85

COc1cc(C(=O)N2CCC(N3CCN(C)CC3)CC2)ccc1Nc1ncc2c(n1)N1CCc3cccc(c31)C(=O)N2C [Compound 24]
KINOMEscan: EGFR(T790M) [1]: 76
KINOMEscan: PIM3 [2]: 67
KINOMEscan: PFPK5(P.falciparum) [3]: 92

COc1cc(C(=O)N2CCC(N3CCN(C)CC3)CC2)ccc1Nc1ncc2c(n1)N(C)c1ccccc1C(=O)N2C [15 (LRRK2-IN-1)]
KINOMEscan: EGFR(T790M) [1]: 88
KINOMEscan: PIM3 [2]: 88
KINOMEscan: PFPK5(P.falciparum) [3]: 100

From publication PMC3914206
